Measured values as given in patent US4711889A, “Schistosomicidal acridanone hydrazones” (Hoffman-La Roche Inc., priority 1986, dated 1987).
Where a name gives a salt, the structure may show the parent alone.

Assay: acute toxicity, single oral administration to mice
Conditions: mouse, in vivo
From the text: The following Table contains the results obtained with representative compounds of the invention. In the Table there are given for each of listed compounds, the VD50 in mg/kg p.o. and the LD50 in mg/kg single oral administration to mice.

SMILES | LD50 [mg/kg]
CN1CCN(CCn2c3ccccc3c(=NN=C3NCCS3)c3ccccc32)CC1 [10-[2-(4-methyl-1-piperazinyl)ethyl]-9-acridanone (2-thiazolidinylidene)hydrazone] | 156 to 312
Cl.Cl.NCCn1c2ccccc2c(=NNc2nccs2)c2ccccc21 [10-(2-aminoethyl)-9-acridanone 2-thiazolylhydrazone dihydrochloride] | 156 to 312
c1ccc2c(c1)c(=NNc1nccs1)c1ccccc1n2CCN1CCCCC1 [10-[2-(1-piperidinyl)ethyl]-9-acridanone (2-thiazolyl)hydrazone 1.5 HCl] | 312 to 625
CN(C)CCn1c2ccccc2c(=NN=C2NCCS2)c2ccccc21 [10-[2-(dimethylamino)ethyl]-9-acridanone (2-thiazolidinylidene)hydrazone] | 250 to 500
CCN(CC)CCn1c2ccccc2c(=NNc2nccs2)c2ccccc21.Cl.Cl [10-[2-(diethylamino)ethyl]-9-acridanone (2-thiazolyl)hydrazone dihydrochloride] | > 5000
CN(C)CCCn1c2ccccc2c(=NN=C2NCCS2)c2ccccc21 [10-[3-(dimethylamino)propyl]-9-acridanone (2-thiazolidinylidene)hydrazone] | 125 to 250
CCN(CC)CCn1c2ccccc2c(=NN=C2NCCS2)c2ccccc21 [10-[2-(diethylamino)ethyl]-9-acridanone (2-thiazolidinylidene)hydrazone] | 312 to 625
CN1CCN(CCn2c3ccccc3c(=NNc3nccs3)c3ccccc32)CC1 [10-[2-(4-methyl-1-piperazinyl)ethyl]-9-acridanone (2-thiazolyl)hydrazone. 2.5 HCl] | 625 to 1250
c1ccc2c(c1)c(=NN=C1NCCS1)c1ccccc1n2CCN1CCCC1 [10-[2-(1-pyrrolidinyl)ethyl]-9-acridanone (2-thiazolidinylidene)hydrazone] | 156 to 312
CC(=O)N1CCN(CCn2c3ccccc3c(=NNc3nccs3)c3ccccc32)CC1.Cl.Cl [10-[2-(4-acetyl-1-piperazinyl)ethyl]-9-acridanone (2-thiazolyl)hydrazone dihydrochloride] | 312 to 625
CC(=O)N1CCN(CCn2c3ccccc3c(=NN=C3NCCS3)c3ccccc32)CC1 [10-[2-(4-acetyl-1-piperazinyl)ethyl]-9-acridanone (2-thiazolidinylidene)hydrazone] | 1250 to 2500
CN(C)CCCn1c2ccccc2c(=NNc2nccs2)c2ccccc21.Cl.Cl [10-[3-(dimethylamino)propyl]-9-acridanone (2-thiazolyl)hydrazone dihydrochloride] | 312 to 625
CN(C)CCn1c2ccccc2c(=NNc2nccs2)c2ccccc21.Cl.Cl [10-[2-(dimethylamino)ethyl]-9-acridanone (2-thiazolyl)hydrazone dihydrochloride] | 312 to 625
